# Measurements from US20260209200A1, “SALTS OF A DIHYDROOROTATE DEHYDROGENASE (DHOD) INHIBITOR” (priority 2022, published 2026).
# Legend:
# [1] = Kinetic solubility of PP-001 salts in FaSSIF (HPLC); type: physicochemical
# Method: Approximately 8 mg (calculated as freebase) of each salt was weighed out into each glass vial and then 4 ml of FaSSIF was added (target concentration was 2 mg/mL). The sample was kept stirring on a magnetic stirrer at a speed of I 00 RPM under 25° C. Then at the time points of initial, 0.5 hr, 1 hr, 2 hrs and 24 hrs, 0.5 mL of sample solution was transferred into 1.5 mL centrifugation tube and centrifuged at 12,000 RPM for 10 min. The supernatant was diluted by 50% ACN suitable and analyzed by HPLC.
# An HPLC method of testing solubility was performed as follows in Table A: […]
# in vivo [2] = details: rat
# Method: (§1) Suspensions were stirred continuously prior to dose.
# A total of 27 male SD rats were used (n=3). 27 male SD rats assigned to the study were divided into 9 groups and a single type of formulated PP-001 salt was orally administered to each group of rats at dose level of 4 mg/kg (2 mL/kg dose volume). The diet was provided ad libitum throughout the in-life portion of the study, except for the fasting prior to dosing through 4 hours post dose. Drinking water was available daily ad libitum to all animals.
# Plasma samples were collected via the jugular vein cannulation into EDTA-K3 tubes at 0.25, 0.5, 1, 2, 4, 8, and 24 hours post-dose administration. For analytical batch of single oral administration, plasma concentrations of salts of PP-001 were determined using LC-MS/MS with a lower limit of quantitation of 1 ng/mL.
# (§2) The pharmacokinetic parameters of PP-001 salts were determined by non-compartmental analysis using WinNonlin Version 8.0 (Pharsight, Mountain View, CA). The area under the curve from the time of dosing to the last measurable concentration, AUC0-t, was calculated by the linear trapezoidal rule. The area under the concentration-time curve extrapolated to infinity, AUCinf, was calculated using a regression of the natural logarithm of the concentration values versus sampling time of the terminal slope (Lambda Z, k). This value is also used to calculate half-life (T1/2) as follows:
# (§3) The bioavailability was calculated as follows:
# (§4) [formula] • wherein PO is an oral administration and IV is an intravenous injection.
# [3] = Thermodynamic (equilibrium) solubility of PP-001 salts in FaSSIF; type: physicochemical; details: 3 mL FaSSIF, 37° C.; for Final pH: pH tested after 24 hours; for Appearance after stirring for 24 hours: saturated; for Thermodynamic solubility: saturated (target 10 mg/mL), time point 2 hrs, pH 6.4 to 6.5
# Method: As the solid was completely dissolved, add more sample to keep it saturated. […] Then at the time point 2 hrs, 0.5 mL of sample solution was transferred into 1.5 mL centrifugation tube and centrifuged at 12,000 RPM for 10 min. The supernatant was diluted by 50% ACN suitable and analyzed by HPLC. The pH was tested after 24 hours.
# in vivo [4] = details: dog; for AUC0-∞ / AUCExtr / AUCinf/D / AUClast / Cmax / F, bioavailability (BA) in dogs / MRT0-∞ / T1/2 / Tmax: 4 mg/kg
# Method: as §1
# A total of 6 male beagle dogs were used (n=3). 6 male dogs assigned to the study were divided into 2 periods with 6 dogs per period and two dosing cycles separated by a 7-day washout period. The diet was provided ad libitum throughout the in-life portion of the study, except for the fasting prior to dosing through 4 hours post dose. Drinking water was available daily ad libitum to all animals. Formulated PP-001 salts were administered to male beagle dogs by oral administration at 4 mg/kg with dosed volume at 2 mL/kg.
# Plasma samples were collected via the jugular vein cannulation into EDTA-K3 tubes at 0.25, 0.5, 1, 2, 4, 8, and 24 hours post-dose administration. For analytical batch of single oral administration, plasma concentrations of salts of PP-001 were determined using LC-MS/MS with a lower limit of quantitation of 10 ng/mL.
# as §2, §3, §4
# [5] = 4 mL FaSSIF, 25° C., target 2 mg/mL
Compound,"Appearance after stirring for 24 hours [1, 5]","Solubility at different time points, 0.5 h [1, 5]","Solubility at different time points, 1 h [1, 5]","Solubility at different time points, 2 h [1, 5]","Solubility at different time points, Initial [1, 5]","Increase in oral BA vs free acid in rats (in vivo [2]; in vivo, po)","AUC0-∞ (in vivo [2]; in vivo, po, 4 mg/kg)","AUCExtr (in vivo [2]; in vivo, po, 4 mg/kg)","AUCinf/D (in vivo [2]; in vivo, po, 4 mg/kg)","AUClast (in vivo [2]; in vivo, po, 4 mg/kg)","Cmax (in vivo [2]; in vivo, po, 4 mg/kg)","F, bioavailability (BA) in rats (in vivo [2]; in vivo, po, 4 mg/kg)","MRT0-∞ (in vivo [2]; in vivo, po, 4 mg/kg)","Tmax (in vivo [2]; in vivo, po, 4 mg/kg)","T1/2 (in vivo [2]; in vivo, po, 4 mg/kg, pH 6.8)","Solubility at different time points, 24 h [1, 5]",Appearance after stirring for 24 hours [3],Thermodynamic solubility [3],also measured
[Mg] [Magnesium],suspension,1520 µg/mL,1510 µg/mL,1440 µg/mL,330 µg/mL,1.7,23029 ng·h/mL,0.510%,5757 kg·ng·h/mL/mg,22909 ng·h/mL,3163 ng/mL,13.2%,4.87 h,3.33 h,3.01 h,,,,"Solubility at different time points, 24 h ([1]; 4 mL FaSSIF, 25° C., target 2 mg/mL, listed as Mg): 1010 µg/mL; Solubility at different time points, 24 h ([1]; 4 mL FaSSIF, 25° C., target 2 mg/mL, listed as Mg cation): 1010 µg/mL"
Sodium,clear solution,1600 µg/mL,1730 µg/mL,1790 µg/mL,410 µg/mL,2.4,32873 ng·h/mL,0.743%,8218 kg·ng·h/mL/mg,32626 ng·h/mL,6147 ng/mL,18.8%,4.76 h,2.33 h,3.34 h,2010 µg/mL,Suspension,1850 µg/mL,"Final pH [3]: 6.49; Increase in oral BA vs free acid in dogs (in vivo [4]): 2.6; AUC0-∞ (in vivo [4]; po): 116660 ng·h/mL; AUCExtr (in vivo [4]; po): 2.16%; AUCinf/D (in vivo [4]; po): 29165 kg·ng·h/mL/mg; AUClast (in vivo [4]; po): 114152 ng·h/mL; Cmax (in vivo [4]; po): 16867 ng/mL; F, bioavailability (BA) in dogs (in vivo [4]; po): 59.6%; MRT0-∞ (in vivo [4]; po): 5.28 h; T1/2 (in vivo [4]; po): 4.24 h; Tmax (in vivo [4]; po): 3.00 h"
CNC[C@H](O)[C@@H](O)[C@H](O)[C@H](O)CO [Meglumine],,2010 µg/mL,1980 µg/mL,2000 µg/mL,1320 µg/mL,1.3,17083 ng·h/mL,0.488%,4271 kg·ng·h/mL/mg,16995 ng·h/mL,2217 ng/mL,,4.83 h,3.00 h,3.02 h,1960 µg/mL,,5690 µg/mL,
Benzathine,,,,,,0.7,9593 ng·h/mL,0.298%,2398 kg·ng·h/mL/mg,9559 ng·h/mL,1495 ng/mL,5.5%,4.81 h,3.33 h,2.70 h,,Suspension,30 µg/mL,Final pH [3]: 6.43
Zinc,,,,,,1.3,17122 ng·h/mL,0.471%,4281 kg·ng·h/mL/mg,17033 ng·h/mL,2490 ng/mL,9.82%,5.33 h,4.00 h,2.89 h,,,,
[Ca] [Calcium],suspension,750 µg/mL,740 µg/mL,710 µg/mL,340 µg/mL,2.0,27157 ng·h/mL,1.03%,6789 kg·ng·h/mL/mg,26827 ng·h/mL,3280 ng/mL,15.6%,5.55 h,4.00 h,3.40 h,,,,"Final pH [1, 5]: 6.51; Solubility at different time points, 24 h ([1]; 4 mL FaSSIF, 25° C., target 2 mg/mL, listed as Ca): 700 µg/mL; Solubility at different time points, 24 h ([1]; 4 mL FaSSIF, 25° C., target 2 mg/mL, listed as Ca cation): 700 µg/mL; Solubility compared to PP-001 free acid ([1]; FaSSIF, comparison from Table 6): reduced solubility compared to PP-001 free acid; Increase in oral BA vs free acid in dogs (in vivo [4]): 3.0; Increase in bioavailability in dogs (in vivo [4]; po): > 3 fold; AUC0-∞ (in vivo [4]; po): 133409 ng·h/mL; AUCExtr (in vivo [4]; po): 1.16%; AUCinf/D (in vivo [4]; po): 33352 kg·ng·h/mL/mg; AUClast (in vivo [4]; po): 131819 ng·h/mL; Cmax (in vivo [4]; po): 22467 ng/mL; F, bioavailability (BA) in dogs (in vivo [4]; po): 68.1%; MRT0-∞ (in vivo [4]; po): 4.38 h; T1/2 (in vivo [4]; po): 3.76 h; Tmax (in vivo [4]; po): 1.67 h"
NCCCC[C@H](N)C(=O)O [Lysine],,2040 µg/mL,2060 µg/mL,2020 µg/mL,1370 µg/mL,,,,,,,,,,,2090 µg/mL,Suspension,4650 µg/mL,"AUC0-∞ (in vivo [2]; PO 4 mg/kg, mean n=3): 18430 ng·h/mL; AUCExtr (in vivo [2]; PO 4 mg/kg, mean n=3): 0.388%; AUCinf/D (in vivo [2]; PO 4 mg/kg, mean n=3): 4607 kg·ng·h/mL/mg; AUClast (in vivo [2]; PO 4 mg/kg, mean n=3): 18361 ng·h/mL; Cmax (in vivo [2]; PO 4 mg/kg, mean n=3): 2663 ng/mL; F, bioavailability (BA) in rats (in vivo [2]; PO 4 mg/kg, mean n=3): 10.6%; MRT0-∞ (in vivo [2]; PO 4 mg/kg, mean n=3): 4.97 h; Tmax (in vivo [2]; PO 4 mg/kg, mean n=3): 4.00 h; T1/2 (in vivo [2]; PO 4 mg/kg, suspension in pH 6.8 phosphate buffer, mean n=3): 2.85 h; Increase in oral BA vs free acid in rats (in vivo [2]; oral, ratio to PP-001 free acid): 1.4"
